Experimental data taken from patent US12128034B2, “Combinations of beta-lactam compounds, probenecid, and valproic acid and uses thereof” (Iterum Therapeutics International Limited, priority 2020, dated 2024).

Experiments:
clinical = settings: in vivo; for AUC(0-t): AUC0-t; for AUC: AUC0-tau
Method: For Cohorts 2 and 3, all patients were administered valproic acid daily. Starting on the fifth day, Cohort 3 was administered the sulopenem etzadroxil tablet (“Etzadroxil Tablet”) alone and Cohort 2 was administered the bilayer tablet of sulopenem etzadroxil and probenecid (500 mg sulopenem etzadroxil+500 mg probenecid film-coated bilayer tablet; “Bilayer Tablet”).

[1] = in vivo
[2] = Dacey and Sande 1974; cited from earlier work
[3] = may result in loss of seizure control; cited from earlier work
Porphyromonas gingivalis = settings: Ednie and Appelbaum 2009; cited from earlier work

CCCC(CCC)C(=O)O [VPA, valproic acid]
tlast, Mean (SD) (clinical; male, human): 11.920 (0.0000) h | AUC0-t, Mean (SD) (clinical; male, human, po): 570.83 (122.096) h · μg/mL | AUC0-tau, Mean (SD) (clinical; male, human, po): 554.71 (140.804) h · μg/mL | Tmax (clinical; male, human, po): 4 h | tmax, Median (min, max) (clinical; male, human, po): 4.000 (2.00, 5.00) h | AUC(0-t) (clinical; male, human, po, GM (CV %)): 517 µg·h/mL | AUC(0-t) (clinical; male, human, po, Mean (SD)): 522 µg·h/mL | AUC (clinical; male, human, po, GM (CV %)): 518 µg·h/mL | AUC (clinical; male, human, po, Mean (SD)): 522 µg·h/mL | tolerability and safety [1]: well tolerated and safe

CCCN(CCC)S(=O)(=O)c1ccc(C(=O)O)cc1 [probenecid]
time at which the impact of probenecid on valproic acid bioavailability can occur (clinical; human): as early as three days | concentrations of β-lactam compounds in the cerebrospinal fluid [2]: increase

C[C@@H](O)[C@H]1C(=O)N2C(C(=O)O)=C(S[C@@H]3CN[C@H](C(=O)N(C)C)C3)[C@H](C)[C@H]12 [meropenem]
serum valproic acid concentration in patients receiving carbapenem antibiotics [3]: clinically significant reduction

C[C@@H](O)[C@H]1C(=O)N2C(C(=O)O)=C(S[C@H]3CC[S@@+]([O-])C3)S[C@H]12 [sulopenem]
effect on the steady-state pharmacokinetic profile of valproic acid (clinical): weak effect | tolerability and safety [1]: well tolerated and safe | activity against Porphyromonas gingivalis (Porphyromonas gingivalis): active

C[C@@H](O)[C@H]1C(=O)N2C(C(=O)O)=C(S[C@@H]3CN[C@H](C(=O)Nc4cccc(C(=O)O)c4)C3)[C@H](C)[C@H]12 [ertapenem]
serum valproic acid concentration in patients receiving carbapenem antibiotics [3]: clinically significant reduction

C[C@@H](O)[C@H]1C(=O)N2C(C(=O)O)=C(SCCN=CN)C[C@H]12 [imipenem]
serum valproic acid concentration in patients receiving carbapenem antibiotics [3]: clinically significant reduction
